ChEMBL document CHEMBL1201862, “PubChem BioAssay data set” (2004)
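Where inhibition never reached the appropriate level, the endpoint shown equals the highest concentration tested. Otherwise, values were interpolated linearly from a five-concentration, 48-hour dose response in 96-well plates. Abbreviation: GI50, concentration required for 50% inhibition of growth.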 Calls of active or inactive are those of the source. Cut-off read from the data, not from the text of the source: active = GI50 up to about 1.1 µM and inactive = higher.

Assays:
Test in all cases: NCI anticancer screen, dose series, 48 h
NCI-H226 = tested on: NCI-H226
MDA-N = tested on: MDA-N
SK-MEL-28 = tested on: SK-MEL-28
OVCAR-3 = tested on: OVCAR-3
NCI/ADR-RES = tested on: NCI/ADR-RES
COLO 205 = tested on: COLO 205
HCC 2998 = tested on: HCC 2998
SNB-19 = tested on: SNB-19
UACC-257 = tested on: UACC-257
NCI-H460 = tested on: NCI-H460
HOP-92 = tested on: HOP-92
MOLT-4 = tested on: MOLT-4
UACC-62 = tested on: UACC-62
K562 = tested on: K562
786-0 = tested on: 786-0
IGROV-1 = tested on: IGROV-1
OVCAR-4 = tested on: OVCAR-4
LOX IMVI = tested on: LOX IMVI
SN12C = tested on: SN12C
KM12 = tested on: KM12
SR = tested on: SR
EKVX = tested on: EKVX
OVCAR-5 = tested on: OVCAR-5
A549 = tested on: A549
NCI-H23 = tested on: NCI-H23
HL-60 = tested on: HL-60
U-251 = tested on: U-251
MDA-MB-435 = tested on: MDA-MB-435
BT-549 = tested on: BT-549
M14 = tested on: M14
HOP-62 = tested on: HOP-62
CAKI-1 = tested on: CAKI-1
DU-145 = tested on: DU-145
SK-MEL-5 = tested on: SK-MEL-5
ACHN = tested on: ACHN
SF-539 = tested on: SF-539
A498 = tested on: A498
MCF7 = tested on: MCF7
SW-620 = tested on: SW-620
CCRF-CEM = tested on: CCRF-CEM
MDA-MB-231 = tested on: MDA-MB-231
TK-10 = tested on: TK-10
SK-MEL-2 = tested on: SK-MEL-2
UO-31 = tested on: UO-31
HCT-116 = tested on: HCT-116
SF-268 = tested on: SF-268
RPMI-8226 = tested on: RPMI-8226
OVCAR-8 = tested on: OVCAR-8
HCT-15 = tested on: HCT-15
SK-OV-3 = tested on: SK-OV-3
HT-29 = tested on: HT-29
Hs-578T = tested on: Hs-578T
SNB-75 = tested on: SNB-75
Malme-3M = tested on: Malme-3M
PC-3 = tested on: PC-3

Measured: GI50

Nc1ccc(C23CC4CC(C2)CC(c2ccc(N)cc2)(C4)C3)cc1
14.5 µM: HCT-15
active: MDA-MB-435 0.164 µM
inactive: NCI-H226 11.5 µM | MDA-N 37.7 µM | SK-MEL-28 15 µM | OVCAR-3 48.5 µM | NCI/ADR-RES 56.8 µM | COLO 205 2.3 µM | HCC 2998 8.09 µM | SNB-19 37.8 µM | UACC-257 75.5 µM | NCI-H460 37.2 µM | HOP-92 41.8 µM | MOLT-4 11.3 µM | UACC-62 29 µM | K562 14.6 µM | 786-0 38.5 µM | IGROV-1 > 100 µM | OVCAR-4 10.2 µM | LOX IMVI > 100 µM | SN12C 25.1 µM | KM12 > 100 µM | SR 14.6 µM | EKVX 36.6 µM | OVCAR-5 27.7 µM | A549 > 100 µM | NCI-H23 59.6 µM | HL-60 31 µM | U-251 14.3 µM | BT-549 42.9 µM | M14 37.2 µM | HOP-62 60 µM | CAKI-1 > 100 µM | DU-145 51.2 µM | SK-MEL-5 13.1 µM | ACHN 41.1 µM | SF-539 16.4 µM | A498 15.7 µM | MCF7 31.8 µM | SW-620 3.14 µM | CCRF-CEM 15.7 µM | MDA-MB-231 1.96 µM | TK-10 > 100 µM | SK-MEL-2 35.9 µM | UO-31 48.6 µM | HCT-116 44.3 µM | SF-268 45.2 µM | RPMI-8226 10.7 µM | OVCAR-8 85.1 µM

O=C(O)C1(Cc2ccc3c(c2)CCC3)Cc2cc3c(cc2C1)CCC3
> 100 µM: HCT-15
inactive: NCI-H226 > 100 µM | MDA-N > 100 µM | SK-MEL-28 > 100 µM | OVCAR-3 > 100 µM | COLO 205 > 100 µM | HCC 2998 > 100 µM | SNB-19 > 100 µM | HOP-92 > 100 µM | MOLT-4 > 100 µM | UACC-62 > 100 µM | K562 > 100 µM | 786-0 > 100 µM | IGROV-1 > 100 µM | SK-OV-3 > 100 µM | OVCAR-4 > 100 µM | HT-29 > 100 µM | LOX IMVI > 100 µM | KM12 > 100 µM | SR > 100 µM | EKVX > 100 µM | OVCAR-5 > 100 µM | A549 > 100 µM | Hs-578T > 100 µM | HL-60 > 100 µM | U-251 > 100 µM | MDA-MB-435 > 100 µM | BT-549 > 100 µM | M14 > 100 µM | DU-145 > 100 µM | SK-MEL-5 > 100 µM | ACHN > 100 µM | SF-539 > 100 µM | A498 > 100 µM | MCF7 > 100 µM | SW-620 > 100 µM | CCRF-CEM > 100 µM | TK-10 > 100 µM | SK-MEL-2 > 100 µM | SNB-75 > 100 µM | UO-31 > 100 µM | Malme-3M > 100 µM | HCT-116 > 100 µM | SF-268 > 100 µM | RPMI-8226 > 100 µM | OVCAR-8 > 100 µM | PC-3 > 100 µM
